Source: patent US20040152783A1, “Controlled absorption of admixed thyroid hormone formulations” (priority 2002, published 2004)
Like-named read-outs stand apart in the source and are kept apart here.

Experiment: Kinetics of T3 absorption after oral dosing in rats; total serum T3 by ELISA
Assay type: in vivo, Sprague-Dawley rats
Settings: for Peak of Delta Curve: oral solution; for Peak of Delta Curve / Deltamax / delta AUC / Tmax: serum TT3; for Percent T3 sodium (AUC 0-24) / Percent T3 sodium (Deltamax) / Percent T3 sodium (Peak of Delta Curve) / Percent T3 sodium (Tmax) / AUC* (0-24) / Deltamax / delta AUC / Tmax: oral; for AUC* (0-24): from mean delta TT3 curve above 0 hour value
Experimental: Defined μg/kg doses were delivered as oral solutions in 0.5% sodium bicarbonate buffer. Rats were dosed immediately following 0 hour serum collection. Serum was collected from rats at two, four, six, nine, 12 and 24 hours after dosing. Total serum T3 concentrations were determined by ELISA using a commercially available kit (Total Triiodothyronine (total T3) ELISA KIT, product #1700, ALPHA DIAGNOSTIC™, San Antonio, Tex.).

[1] = Example 1, T3 sodium 12 μg/kg vs T4 sodium 162 plus T3 sodium 12 μg/kg (13.5:1)
[2] = Example 2, T3 sodium 6 μg/kg vs T4 sodium 54 plus T3 sodium 6 μg/kg (9:1)
[3] = Example 3, T3 sodium 4 μg/kg vs T4 sodium 16 plus T3 sodium 4 μg/kg (4:1)
[4] = Example 4, T3 sodium 4 μg/kg vs T4 sodium 4 plus T3 sodium 4 μg/kg (1:1)
[5] = Example 5, T3 sodium 15 μg/kg vs T4 sodium 6 plus T3 sodium 15 μg/kg (0.4:1)
[6] = Example 6, T3 sodium 15 μg/kg vs T4 sodium 1.5 plus T3 sodium 15 μg/kg (0.1:1)

Peak of Delta Curve (Example 1, T3 sodium 12 μg/kg alone vs T4 sodium 162 μg/kg plus T3 sodium 12 μg/kg (T4:T3 13.5:1)): 142 ng/dL | Percent T3 sodium (AUC 0-24) [1]: 100% | Percent T3 sodium (Deltamax) [1]: 100% | Percent T3 sodium (Peak of Delta Curve) [1]: 100% | Percent T3 sodium (Tmax) [1]: 100% | AUC* (0-24) [1]: 1,469 ng/dLh | Deltamax [1]: 156 ng/dL | delta AUC [1]: 1,471 ng/dL·hr | Peak of Delta Curve (Example 2, T3 sodium 6 μg/kg alone vs T4 sodium 54 μg/kg plus T3 sodium 6 μg/kg (T4:T3 9:1)): 232 ng/dL | Percent T3 sodium (AUC 0-24) [2]: 100% | Percent T3 sodium (Deltamax) [2]: 100% | Percent T3 sodium (Peak of Delta Curve) [2]: 100% | Percent T3 sodium (Tmax) [2]: 100% | AUC* (0-24) [2]: 2,212 ng/dLh | Deltamax [2]: 232 ng/dL | delta AUC [2]: 2,384 ng/dL·hr | Peak of Delta Curve (Example 3, T3 sodium 4 μg/kg alone vs T4 sodium 16 μg/kg plus T3 sodium 4 μg/kg (T4:T3 4:1)): 65 ng/dL | Percent T3 sodium (AUC 0-24) [3]: 100% | Percent T3 sodium (Deltamax) [3]: 100% | Percent T3 sodium (Peak of Delta Curve) [3]: 100% | Percent T3 sodium (Tmax) [3]: 100% | AUC* (0-24) [3]: 1,193 ng/dLh | Deltamax [3]: 69 ng/dL | delta AUC [3]: 1,193 ng/dL·hr | Peak of Delta Curve (Example 4, T3 sodium 4 μg/kg alone vs T4 sodium 4 μg/kg plus T3 sodium 4 μg/kg (T4:T3 1:1)): 65 ng/dL | Percent T3 sodium (AUC 0-24) [4]: 100% | Percent T3 sodium (Deltamax) [4]: 100% | Percent T3 sodium (Peak of Delta Curve) [4]: 100% | Percent T3 sodium (Tmax) [4]: 100% | AUC* (0-24) [4]: 1,193 ng/dLh | Deltamax [4]: 69 ng/dL | Tmax [4]: 2.4 h | delta AUC [4]: 1,193 ng/dL·hr | Peak of Delta Curve (Example 5, T3 sodium 15 μg/kg alone vs T4 sodium 6 μg/kg plus T3 sodium 15 μg/kg (T4:T3 0.4:1)): 167 ng/dL | Percent T3 sodium (AUC 0-24) [5]: 100% | Percent T3 sodium (Deltamax) [5]: 100% | Percent T3 sodium (Peak of Delta Curve) [5]: 100% | Percent T3 sodium (Tmax) [5]: 100% | AUC* (0-24) [5]: 1,732 ng/dLh | Deltamax [5]: 170 ng/dL | delta AUC [5]: 1,732 ng/dL·hr | Peak of Delta Curve (Example 6, T3 sodium 15 μg/kg alone vs T4 sodium 1.5 μg/kg plus T3 sodium 15 μg/kg (T4:T3 0.1:1)): 138 ng/dL | Percent T3 sodium (AUC 0-24) [6]: 100% | Percent T3 sodium (Deltamax) [6]: 100% | Percent T3 sodium (Peak of Delta Curve) [6]: 100% | Percent T3 sodium (Tmax) [6]: 100% | AUC* (0-24) [6]: 1,762 ng/dLh | Deltamax [6]: 146 ng/dL | delta AUC [6]: 1,762 ng/dL·hr | Tmax (Sprague-Dawley, rat, 15 ug/kg, Example 6, T3 sodium 15 μg/kg vs T4 sodium 1.5 plus T3 sodium 15 μg/kg (0.1:1), read-out: Tmax): 5.6 h | Tmax (Sprague-Dawley, rat, Example 1, T3 sodium 12 μg/kg vs T4 sodium 162 plus T3 sodium 12 μg/kg (13.5:1), read-out: Tmax): 5.2 h | Tmax (Sprague-Dawley, rat, Example 2, T3 sodium 6 μg/kg vs T4 sodium 54 plus T3 sodium 6 μg/kg (9:1), read-out: Tmax): 2 h | Tmax (Sprague-Dawley, rat, Example 3, T3 sodium 4 μg/kg vs T4 sodium 16 plus T3 sodium 4 μg/kg (4:1), read-out: Tmax): 2.4 h | Tmax (Sprague-Dawley, rat, Example 5, T3 sodium 15 μg/kg vs T4 sodium 6 plus T3 sodium 15 μg/kg (0.4:1), read-out: Tmax): 4.6 h
SMILES: N[C@@H](Cc1cc(I)c(Oc2ccc(O)c(I)c2)c(I)c1)C(=O)O [T3 sodium, liothyronine sodium]
